In test [1] the target is T1, Rv3404c (Mycobacterium tuberculosis, UniProt P9WKZ3).
Test [2] addresses T1, Rv3404c. The source holds these as a separate data set.

The source of these data is publication PMC5644030 (Biochemistry, 2017).

T1 sequence (P9WKZ3 whole entry): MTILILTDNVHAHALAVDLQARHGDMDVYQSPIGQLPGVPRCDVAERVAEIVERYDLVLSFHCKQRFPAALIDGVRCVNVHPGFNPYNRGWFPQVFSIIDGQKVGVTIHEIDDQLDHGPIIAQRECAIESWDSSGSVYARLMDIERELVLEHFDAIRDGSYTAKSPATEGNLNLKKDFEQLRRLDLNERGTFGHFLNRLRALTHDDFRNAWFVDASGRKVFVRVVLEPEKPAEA

For `Nc1nc2c(c(=O)[nH]1)N(C=O)[C@@H](CNc1ccc(C(=O)N[C@@H](CCC(=O)O)C(=O)O)cc1)CN2` [N5-formyl-THF], the “X-ray crystallography, 1.6 Å ternary complex” value on Rv3404c [1] was “The structure of Rv3404c in complex with N5-formyltetrahydrofolate (N5-formyl-THF) and dTDP-Qui4N was determined”. For the compound `Nc1nc2c(c(=O)[nH]1)N[C@@H](CN(C=O)c1ccc(C(=O)N[C@@H](CCC(=O)O)C(=O)O)cc1)CN2` [N10-formyl-THF], the “HPLC and ESI mass spectrometry of product” value on Rv3404c [2] was “Upon incubation of dTDP-Qui4N and N10-formyl-THF with Rv3404c, a peak was observed”.
